“Also recorded” adds a separate entry of the source.
Key:
[1] = test system: H3K9me3 oligonucleosomal templates containing tailless H2A, H2B or H4; assay: Chromatin sedimentation (clustering), H3K9me3 oligonucleosomes with tailless histones; format: biochemical, Xenopus laevis; settings: 150 mM NaCl, n=3
Method: Figure 3 hHP1β clusters oligonuclesomal arrays in dependence of H3K9me3. (a) Oligonucleosomes (2.5 nM) were incubated with increasing concentrations of hHP1β WT or I161A at 150 mM NaCl. DNA remaining in the supernatant after centrifugation was incubated with EtBr and measured by fluorescence reading. Data were normalized to amounts in absence of added protein. Averages of three independent experiments are plotted; error bars represent s.d.; n=3. (b) Analysis of the hydrodynamic radius of oligonucleosomes (10 nM; DNA labelled with ATTO 610) in the presence of increasing concentrations of hHP1β WT or I161A by FCS at 150 mM NaCl. For details on experimental setup see Supplementary Fig. 3. Error bars represent s.d.; n=3. (c) Oligonucleosomes were reconstituted after mixing H3K9me0 and H3K9me3 octamers at different ratio. […] (d) Precipitation behaviour of oligonucleosomes (2.5 nM) was analysed at different concentrations of NaCl with hHP1β WT at saturating concentration. […] Precipitated material was analysed by western blotting. […] Complexes were fixed with 0.05% (v/v) glutaraldehyde, spotted on mica surfaces and analysed by scanning force microscopy. […] (h) Quantification of results representatively shown in g according to the classification on the top: A, extended; B, partially condensed; C, fully condensed; D; aggregates; n>50 for each condition. […]

[2] = Multimerization beyond dimer; format: physicochemical; settings: dynamic light scattering, SAXS, protein cross-linking, nuclear magnetic resonance
[3] = test system: H3KC9me3 oligonucleosomes; assay: Chromatin coprecipitation, H3KC9me3 oligonucleosomes; format: binding, Xenopus laevis
Method: 6.7 nM oligonucleosomes were incubated with 1 μM recombinant protein in 100 μl binding buffer (10 mM triethanolamine (pH 7.5), 150 mM NaCl, 5 mM MgCl2, 0.1 mM EDTA, 0.1% (v/v) Triton-X100) for 1 h on ice. Precipitated chromatin complexes were recovered by centrifugation at 16,100g for 30 min at 4°C. Pellets were washed once with 0.5 ml binding buffer and centrifuged for 15 min at 4 °C. Precipitated material was resuspended in 10 μl 1 × SDS loading buffer and boiled for 5 min before running on SDS–PAGE.
Supplementary Table 1: Summary of conditions used in the different experiments of this study.
experiment result modification template Temp. [NaCl] [MgCl2]
chromatin Fig. 1e,f; Fig. S1f-h; H3K9me3 oligo- 4 150 5

self-dimerization = settings: ref [9][20]; read-out: dimerization Kd in solution; cited from earlier work
Method: To test this hypothesis, we analysed an hHP1β chimera where the CSD was replaced with an unrelated dimerization module. We used glutathione S-transferase (GST), as it is known to form dimers of similar strength as hHP1β WT in solution (Kd<1 nM)[9][20].

H3K9me3 peptide = target: T1, H3K9me3 peptide (Homo sapiens, UniProt P68431); assay: Pull-down, immobilized H3K9me3 peptide; format: binding; settings: H3-tail peptides densely immobilized on magnetic beads, 100 pmol protein, 150 mM NaCl, 4°C
T1 construct: C-terminally biotinylated histone H3 peptides (aa 1–20)
Method: 4 μg C-terminally biotinylated histone H3 peptides (aa 1–20) or 1 μg of biotinylated nucleosomes or oligonucleosomal arrays were incubated with 40 μl Streptavidin MagnaSphere Paramagmetic beads (Promega, Mannheim, Germany) in 350 μl binding buffer (10 mM triethanolamine (pH 7.5), 150 mM NaCl, 0.1 mM EDTA, 0.1% (v/v) Triton-X100) supplemented with 1 mg ml^−1 BSA for 2.5 h at RT. Unbound material was removed by three washes with 0.5 ml binding buffer. Charged beads were then incubated with 100 pmol recombinant protein in 350 μl binding buffer for 1 h at 4°C on a rotator. Beads were washed three times with 0.5 ml binding buffer for 3 min per wash at 4°C. Bound proteins were eluted in 20 μl 1 × SDS loading buffer and by boiling for 5 min.
Supplementary Table 1: Summary of conditions used in the different experiments of this study. experiment result modification template Temp. [NaCl] [MgCl2] […]
chromatin Fig. 1e,f; Fig. S1f-h; H3K9me3 oligo- 4 150 5 coprecipitation Fig. S2b nucleosomes
Fig. S7d,f; Fig.S9c nucleosomes […]
chromatin sedimentation Fig. 4a; H3K9me3 oligo- 4 150 0
(single point) Fig. S3b nucleosomes […]
chromatin sedimentation. oligo-(titration) Fig. 3a H3K9me3 nucleosomes 4 150 0

Substance	clustering of oligonucleosomes with tailless histones [1]	multimerization beyond CSD-mediated dimerization [2]	recovery with H3KC9me3 oligonucleosomes ([3]; 6.7 nM oligonucleosomes, 1 μM protein, 150 mM NaCl, 5 mM MgCl2)	molecules bound per nucleosome ([3]; saturating protein concentrations)	Kd (self-dimerization) [nM]	recovery on H3K9me3 peptide (H3K9me3 peptide)
hHP1β WT: recombinant human heterochromatin protein 1β (GenBank NM_001127228), 185 aa	clustered H3K9me3 oligonucleosomes containing tailless H2A or H2B as efficiently as H3K9me3-oligonucleosomes containing WT core histones; also recorded: the effect on H3K9me3 oligonucleosomes containing tailless H4 was impaired	failed to detect any multimerization of hHP1β beyond CSD-mediated dimerization	bound specifically to H3K9me3 oligonucleosomes irrespective of the saturation level of the chromatin template	two	< 1	–
hHP1β I161A: CSD point mutant of hHP1β incapable of dimerization	–	–	–	–	–	significantly reduced recovery

Source: PMC4838890, “Dynamic and flexible H3K9me3 bridging via HP1β dimerization establishes a plastic state of condensed chromatin” (Nature Communications, 2016)
